Experimental data: PubChem BioAssay (NCI)
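Results reflect a 48-hour exposure of cells in 96-well plates to compound at five concentrations. GI50: concentration for 50% inhibition of growth. TGI denotes the concentration required for complete inhibition of growth.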

Assays:
Assay in all cases: growth of human tumour cells (NCI), 48 h
HCT-15 colon = tested on: HCT-15 colon
M14 melanoma = tested on: M14 melanoma
BT-549 breast = tested on: BT-549 breast
SW-620 colon = tested on: SW-620 colon
SN12C renal = tested on: SN12C renal
SK-OV-3 ovarian = tested on: SK-OV-3 ovarian
MOLT-4 leukemia = tested on: MOLT-4 leukemia
SK-MEL-28 melanoma = tested on: SK-MEL-28 melanoma
MCF7 breast = tested on: MCF7 breast
IGROV1 ovarian = tested on: IGROV1 ovarian

Row | SMILES | GI50 (HCT-15 colon) [µM] | TGI (HCT-15 colon) [µM] | GI50 (M14 melanoma) [µM] | TGI (M14 melanoma) [µM] | GI50 (BT-549 breast) [µM] | TGI (BT-549 breast) [µM] | GI50 (SW-620 colon) [µM] | TGI (SW-620 colon) [µM] | GI50 (SN12C renal) [µM] | TGI (SN12C renal) [µM] | GI50 (SK-OV-3 ovarian) [µM] | TGI (SK-OV-3 ovarian) [µM] | GI50 (MOLT-4 leukemia) [µM] | TGI (MOLT-4 leukemia) [µM] | GI50 (SK-MEL-28 melanoma) [µM] | TGI (SK-MEL-28 melanoma) [µM] | GI50 (MCF7 breast) [µM] | TGI (MCF7 breast) [µM] | GI50 (IGROV1 ovarian) [µM] | TGI (IGROV1 ovarian) [µM]
1 | Oc1ccc(Cc2ccc(O)c3ncccc23)c2cccnc12 | 0.0712 | > 100 | 0.0423 | > 100 | 0.0382 | > 100 | 0.0417 | > 100 | 0.0361 | > 100 | 0.214 | 0.653 | 0.231 | > 100 | 0.0607 | > 100 | 0.0524 | > 100 | 0.0776 | > 100
2 | Nc1ccccc1C#C/C=C\C#Cc1ccccc1C(F)(F)F | 1.13 | 12.5 | 0.422 | 9.74 | 0.699 | 17.3 | 1.5 | 41 | 0.399 | 9.45 | 0.888 | 24.7 | > 61.3 | > 100 | 18.2 | > 100 | 1.56 | > 47.5 | 1.34 | > 55.8
3 | CCN(Cc1cccc(OC)c1)c1ccc(CO)c(Cl)c1 | 14.8 | 66.6 | 16.2 | 41 | 13.9 | 28.9 | 0.763 | > 100 | 12.9 | 32.1 | 8.52 | 33.6 | 21.2 | > 71.9 | 14.7 | 35.8 | 0.196 | 14.5 | 0.078 | 0.833
4 | O=c1cccc(C#CC#C[C@H]2O[C@@H]2CO)o1 | 0.353 | 1.29 | 1.23 | – | 1.19 | 3.02 | 0.238 | 0.596 | 0.149 | 0.333 | 2.66 | 7.18 | 0.154 | > 100 | 0.37 | 1.71 | 0.472 | 4.28 | 0.624 | 1.85
5 | Cc1ccc2c(c1)nc(C(=O)c1ccco1)c(C(F)(F)F)[n+]2[O-] | > 100 | > 100 | > 100 | > 100 | 78.5 | > 100 | 1.75 | 3.33 | > 100 | > 100 | > 100 | > 100 | > 100 | > 100 | > 100 | > 100 | > 100 | > 100 | 48 | > 100
6 | CC1=C([Se]CC(OC(=O)CC[Se]c2ccccc2)C(=O)NCCCCCC(=O)OCc2ccccc2)C(=O)c2ccccc2C1=O (centres undefined) | 3.85 | 21.6 | 2.04 | 4.8 | 2.99 | 12.2 | 3.28 | 11.6 | 3.25 | 14.3 | 3.95 | 7.27 | 3.61 | 31.2 | 2.98 | 7.76 | 2.51 | 12.7 | 1.31 | 4.11
7 | CCN(CC)c1ccc(/C=C\c2cc(C)c3cc(C)ccc3n2)cc1 | 2.32 | > 100 | 3.89 | > 100 | 5.07 | > 100 | 3.52 | > 100 | 11.7 | > 100 | 4.63 | > 100 | 6.12 | > 100 | 5.17 | > 100 | 2.95 | > 100 | 7.34 | > 100
8 | C/C(=N/S(=O)(=O)c1ccc(Cl)c(Cl)c1)OCC(C)(C)C | – | > 100 | – | > 100 | – | > 100 | – | > 100 | – | > 100 | – | > 100 | – | > 100 | – | > 100 | – | > 100 | – | > 100
9 | CC(=O)OC[C@H]1O[C@@H](n2ccc(=O)[nH]c2=O)[C@H](OC(C)=O)[C@@H]1OC(C)=O | > 100 | > 100 | > 100 | > 100 | > 100 | > 100 | > 100 | > 100 | > 100 | > 100 | > 100 | > 100 | > 100 | > 100 | > 100 | > 100 | > 100 | > 100 | > 100 | > 100
10 | O=C(O)c1ccc2c(c1)Cc1cc([N+](=O)[O-])ccc1-2 | – | > 100 | – | > 100 | – | > 100 | – | > 100 | – | > 100 | – | > 100 | – | > 100 | – | > 100 | – | > 100 | – | > 100
11 | COc1ccccc1-[n+]1cc(-c2ccc(-c3ccccc3)cc2)n2c1CCCCC2 | 4.35 | 20.2 | 0.443 | 10.1 | 0.15 | 1.25 | 0.587 | 12.7 | 0.288 | 10.5 | 0.368 | 5.82 | 0.292 | 3.97 | 0.384 | 11.2 | 0.229 | 11.2 | 0.617 | 13.5
12 | Nc1ccc2c(SCCSc3c4ccccc4nc4cc(N)ccc34)c3ccccc3nc2c1 | – | > 100 | – | > 100 | – | > 100 | – | > 100 | – | > 100 | – | > 100 | – | 39.3 | – | > 100 | – | > 100 | – | > 100
13 | c1ccc(Cc2nc3ccc(Nc4ncnc5ccccc45)cc3[nH]2)cc1 | > 25 | > 25 | > 25 | > 25 | > 25 | > 25 | > 25 | > 25 | 11.1 | > 25 | 7.03 | > 25 | > 25 | > 25 | > 25 | > 25 | > 25 | > 25 | 16.2 | > 25
